Assay results: PubChem BioAssay (NCI)
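These data come from cells grown in 96-well plates and exposed to compound for 48 hours at five concentrations. Definition used: TGI = concentration required for complete inhibition of growth.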

Tests used:
Test in all cases: NCI anticancer screen, dose series, 48 h
[1] = tested on: KM12 colon
[2] = tested on: OVCAR-3 ovarian
[3] = tested on: MOLT-4 leukemia
[4] = tested on: DU-145 prostate
[5] = tested on: HS 578T breast
[6] = tested on: MDA-N
[7] = tested on: PC-3 prostate
[8] = tested on: HCT-116 colon
[9] = tested on: U251 CNS
[10] = tested on: HCC-2998 colon
[11] = tested on: IGROV1 ovarian
[12] = tested on: LOX IMVI melanoma
[13] = tested on: HOP-92 NSCLC
[14] = tested on: UACC-257 melanoma
[15] = tested on: OVCAR-4 ovarian
[16] = tested on: COLO 205 colon
[17] = tested on: MCF7 breast
[18] = tested on: TK-10 renal
[19] = tested on: NCI/ADR-RES ovarian
[20] = tested on: SF-295 CNS
[21] = tested on: EKVX NSCLC
[22] = tested on: CCRF-CEM leukemia
[23] = tested on: SN12C renal
[24] = tested on: SK-MEL-2 melanoma
[25] = tested on: SNB-75 CNS
[26] = tested on: CAKI-1 renal
[27] = tested on: 786-0 renal
[28] = tested on: HOP-62 NSCLC
[29] = tested on: A549 NSCLC
[30] = tested on: OVCAR-5 ovarian
[31] = tested on: SK-MEL-5 melanoma
[32] = tested on: RPMI-8226 leukemia
[33] = tested on: SF-268 CNS
[34] = tested on: K-562 leukemia
[35] = tested on: MDA-MB-231 breast
[36] = tested on: UO-31 renal
[37] = tested on: HT29 colon
[38] = tested on: A498 renal
[39] = tested on: HL-60(TB) leukemia
[40] = tested on: MALME-3M melanoma
[41] = tested on: M14 melanoma
[42] = tested on: HCT-15 colon
[43] = tested on: NCI-H226 lung
[44] = tested on: SNB-19 CNS
[45] = tested on: NCI-H460 lung
[46] = tested on: SK-OV-3 ovarian
[47] = tested on: ACHN renal
[48] = tested on: NCI-H23 lung
[49] = tested on: NCI-H522 lung
[50] = tested on: UACC-62 melanoma
[51] = tested on: OVCAR-8 ovarian
[52] = tested on: T-47D breast
[53] = tested on: SR leukemia
[54] = tested on: SW-620 colon
[55] = tested on: SF-539 CNS
[56] = tested on: SK-MEL-28 melanoma
[57] = tested on: MDA-MB-435
[58] = tested on: RXF 393 renal
[59] = tested on: BT-549 breast

## C/C(=N\NC(=S)NCc1ccccc1)c1nc2ncccc2[nH]1
[1]
  TGI: 21.5 µM
[2]
  TGI: 39.8 µM
[3]
  TGI: 17.5 µM
[4]
  TGI: 24.5 µM
[5]
  TGI: > 100 µM
[6]
  TGI: 26.8 µM
[7]
  TGI: 50.2 µM
[8]
  TGI: 17.3 µM
[9]
  TGI: 19.4 µM
[10]
  TGI: 68.4 µM
[11]
  TGI: 34.1 µM
[12]
  TGI: 21.4 µM
[13]
  TGI: 22.5 µM
[14]
  TGI: 22.1 µM
[15]
  TGI: 83 µM
[16]
  TGI: 34.4 µM
[17]
  TGI: 16.2 µM
[18]
  TGI: 73.4 µM
[19]
  TGI: 78.8 µM
[20]
  TGI: 22.8 µM
[21]
  TGI: 8.51 µM
[22]
  TGI: 19.2 µM
[23]
  TGI: > 100 µM
[24]
  TGI: 36 µM
[25]
  TGI: 49 µM
[26]
  TGI: 61.2 µM
[27]
  TGI: > 100 µM
[28]
  TGI: 26.2 µM
[29]
  TGI: > 100 µM
[30]
  TGI: 30.2 µM
[31]
  TGI: 14.6 µM
[32]
  TGI: 59.9 µM
[33]
  TGI: 65.6 µM
[34]
  TGI: 41.5 µM
[35]
  TGI: 90.2 µM
[36]
  TGI: 11 µM
[37]
  TGI: 12.8 µM
[38]
  TGI: 50 µM
[39]
  TGI: > 100 µM
[40]
  TGI: 34.6 µM
[41]
  TGI: 19.8 µM
[42]
  TGI: 37.2 µM
[43]
  TGI: 20.8 µM
[44]
  TGI: 50.2 µM
[45]
  TGI: 27.6 µM
[46]
  TGI: > 100 µM
[47]
  TGI: 52.9 µM
[48]
  TGI: 40.8 µM
[49]
  TGI: 32 µM
[50]
  TGI: 27.1 µM
[51]
  TGI: 26.8 µM
[52]
  TGI: 43.3 µM
[53]
  TGI: > 100 µM
[54]
  TGI: > 100 µM
[55]
  TGI: 20.8 µM
[56]
  TGI: 37.4 µM
[57]
  TGI: 33.5 µM

## CC(=O)OCC(Br)C1(C)CCC(C(C)(C)Br)O1 (configuration not stated)
[1]
  TGI: > 100 µM
[2]
  TGI: > 100 µM
[3]
  TGI: > 100 µM
[4]
  TGI: > 100 µM
[5]
  TGI: > 100 µM
[6]
  TGI: > 100 µM
[7]
  TGI: > 100 µM
[8]
  TGI: > 100 µM
[9]
  TGI: > 100 µM
[10]
  TGI: > 100 µM
[58]
  TGI: > 100 µM
[11]
  TGI: > 100 µM
[12]
  TGI: > 100 µM
[13]
  TGI: > 100 µM
[14]
  TGI: 45.2 µM
[15]
  TGI: 72 µM
[16]
  TGI: > 100 µM
[17]
  TGI: > 100 µM
[18]
  TGI: > 100 µM
[19]
  TGI: > 100 µM
[20]
  TGI: > 100 µM
[21]
  TGI: > 100 µM
[22]
  TGI: > 100 µM
[23]
  TGI: > 100 µM
[24]
  TGI: > 100 µM
[25]
  TGI: > 100 µM
[26]
  TGI: > 100 µM
[27]
  TGI: > 100 µM
[28]
  TGI: > 100 µM
[29]
  TGI: > 100 µM
[30]
  TGI: > 100 µM
[31]
  TGI: > 100 µM
[32]
  TGI: > 100 µM
[33]
  TGI: > 100 µM
[34]
  TGI: > 100 µM
[35]
  TGI: > 100 µM
[36]
  TGI: > 100 µM
[37]
  TGI: > 100 µM
[38]
  TGI: > 100 µM
[39]
  TGI: > 100 µM
[40]
  TGI: > 100 µM
[41]
  TGI: > 100 µM
[43]
  TGI: > 100 µM
[44]
  TGI: > 100 µM
[45]
  TGI: > 100 µM
[46]
  TGI: > 100 µM
[47]
  TGI: > 100 µM
[48]
  TGI: > 100 µM
[49]
  TGI: 86.7 µM
[59]
  TGI: > 100 µM
[53]
  TGI: > 100 µM
[54]
  TGI: > 100 µM
[55]
  TGI: > 100 µM
[56]
  TGI: > 100 µM
[57]
  TGI: > 100 µM

## CCN(CC)CCN(C(=O)c1ccc(F)cc1)c1ccccc1N
[1]
  TGI: > 10 µM
[2]
  TGI: > 10 µM
[3]
  TGI: > 10 µM
[4]
  TGI: > 10 µM
[5]
  TGI: > 10 µM
[6]
  TGI: > 10 µM
[7]
  TGI: > 10 µM
[8]
  TGI: > 10 µM
[9]
  TGI: > 10 µM
[10]
  TGI: > 10 µM
[58]
  TGI: > 10 µM
[11]
  TGI: > 10 µM
[12]
  TGI: > 10 µM
[15]
  TGI: > 10 µM
[16]
  TGI: > 10 µM
[17]
  TGI: > 10 µM
[18]
  TGI: > 10 µM
[19]
  TGI: > 10 µM
[20]
  TGI: > 10 µM
[21]
  TGI: > 10 µM
[22]
  TGI: > 10 µM
[23]
  TGI: > 10 µM
[24]
  TGI: > 10 µM
[25]
  TGI: > 10 µM
[26]
  TGI: > 10 µM
[28]
  TGI: > 10 µM
[29]
  TGI: > 10 µM
[30]
  TGI: > 10 µM
[31]
  TGI: > 10 µM
[32]
  TGI: > 10 µM
[33]
  TGI: > 10 µM
[34]
  TGI: > 10 µM
[35]
  TGI: > 10 µM
[36]
  TGI: > 10 µM
[37]
  TGI: > 10 µM
[38]
  TGI: > 10 µM
[39]
  TGI: > 10 µM
[40]
  TGI: > 10 µM
[41]
  TGI: > 10 µM
[42]
  TGI: > 10 µM
[43]
  TGI: > 10 µM
[44]
  TGI: > 10 µM
[45]
  TGI: > 10 µM
[46]
  TGI: > 10 µM
[47]
  TGI: > 10 µM
[48]
  TGI: > 10 µM
[49]
  TGI: > 10 µM
[50]
  TGI: > 10 µM
[51]
  TGI: > 10 µM
[52]
  TGI: > 10 µM
[53]
  TGI: > 10 µM
[54]
  TGI: > 10 µM
[55]
  TGI: > 10 µM
[56]
  TGI: > 10 µM
[57]
  TGI: > 10 µM
